Laboratory results: patent publication US11339185B2, “Cyclic dinucleotides as anticancer agents” (Bristol-Myers Squibb Company, priority 2018, dated 2022)
Where two headings read alike, the source gives them in different places.

What was measured:
[1] = system: THP1-Dual cells, IRF pathway (IRF3); test: STING THP1 Reporter Assay, IRF pathway (secreted Lucia luciferase, QUANTI-Luc); assay type: cell-based; conditions: 10% human plasma, luciferase readout, 100% activation = 100 μM cGAMP, read-out: THP1 Reporter Assays EC50 (μM) IRF3
Source text: (§1) THP1-Dual™ cells were derived from the human THP-1 monocyte cell line by stable integration of two inducible reporter constructs. To this end, THP1-Dual™ cells allow the simultaneous study of the NF-κB pathway, by monitoring the activity of SEAP, and the IRF pathway by assessing the activity of a secreted luciferase (Lucia). Both reporter proteins are readily measurable in the cell culture supernatant when using QUANTI-Blue™, a SEAP detection reagent, and QUANTI-Luc™, a luciferase detection reagent.
(§2) THP1-Dual™ cells induce the activation of NF-κB in response to STING agonists. They also trigger the IRF pathway upon stimulation with STING agonists, such as cGAMP. Here, the THP-1-Dual cells were used to assess STING binders for function on the cellular level.
(§3) Serial dilutions of compounds in DMSO were added to low volume 384 well plates at 100 nl/well using an ECHO acoustic dispenser (Labcyte, model 550) to achieve final starting concentration of 100 μM in cell suspension. THP-1 Dual™ STING reporter cells (Invivogen, Dual cells cat #THPD-nfis) were added to the plates with compounds at 15,000 cells in 10 μL per well in RPMI media (Gibco, cat #11875) containing 10% human plasma in a low volume 384-well black wall clear bottom tissue culture plate (Corning, cat #3542) for SEAP assay and low volume solid white plate (Corning, cat #3826) for luciferase assay. One column of the plate was reserved for treatment with cGAMP at 100 μM for 100% activation calculation and one column for no treatment (DMSO only) for baseline activation. Plates were then incubated in 37 OC incubator at 5% CO2 for 20 hours.
(§4) In the SEAP assay, 5 μl of 2× QuantiBlue (Invivogen, cat #Rep-qb2) is added to 384 well black plates seeded with THP1 cells and incubated at 37° C. for 2 hours. Plates were read on the Envision (Perkin Elmer) at 620 nm wavelength (OD620). In the luciferase assay, 5 μl of Quantiluc (Invivogen, Rep-qlc2) is added to white 384 well plates seeded with THP1 cells and read at 5 minutes on the Envision (Perkin Elmer) using a luminescence protocol (RLU). For both cell lines, 100% activation was determined by value (RLU) of THP-1 Dual STING cells stimulated with 100 μM cGAMP (Invivogen, cat #TLRL-NACGA23-5).

[2] = system: THP1-Dual cells, NF-κB pathway; test: STING THP1 Reporter Assay, NF-κB pathway (SEAP, QUANTI-Blue); assay type: cell-based; conditions: 10% human plasma, SEAP readout (OD620), 100% activation = 100 μM cGAMP, read-out: THP1 Reporter Assays EC50 (μM) NFkB
Source text: as §1, §2, §3, §4

[3] = target: T1, STING AQ: His-TVMV-S-hSTING(155-341)-G230A-R293Q (Homo sapiens, UniProt Q86WV6, G230A/H232R/R293Q); test: STING HTRF binding assay (time resolved FRET competition), STING AQ; conditions: 20 nM His-tagged STING AQ cytoplasmic domain, 40 nM fluorescein-labeled cGAMP analog probe, one hour; read-out: HTRF Binding Assays IC50 (μM) AQ
T1 construct: STING AQ: His-TVMV-S-hSTING(155-341)-G230A-R293Q
T1 sequence (Q86WV6 with tags, fused parts or gaps G230A/H232R/R293Q): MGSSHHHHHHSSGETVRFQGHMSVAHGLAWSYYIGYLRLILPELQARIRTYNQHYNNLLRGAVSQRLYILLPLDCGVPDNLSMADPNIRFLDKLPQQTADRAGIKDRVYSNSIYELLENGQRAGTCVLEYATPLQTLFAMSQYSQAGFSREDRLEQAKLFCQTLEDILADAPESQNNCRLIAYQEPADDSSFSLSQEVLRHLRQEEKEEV
Procedure: (§5) A time resolved FRET-based competition binding assay was used to assess test article binding to STING WT and STING AQ. His-tagged STING cytoplasmic domain (WT or AQ) at a concentration of 20 nM was incubated with 2.5 nM Tb-labeled anti-His antibody, test compound, and fluorescein-labeled cGAMP analog probe (BioLog cat. no. C195) at a concentration of 200 nM (STING WT) or 40 nM (STING AQ) in PBS containing 0.005% Tween-20 and 0.1% BSA for one hour. Fluorescence at 495 nm and 520 nm was measured using an EnVision microplate reader to quantify FRET between Tb-labeled anti-His antibody and fluorescein-labeled probe. Background was defined as the signal obtained in the absence of STING protein, and background subtracted FRET ratios were normalized to the maximum signal obtained in the absence of test compound. These values were converted to a percent inhibition. Percent inhibition was determined for test compounds at 11 concentrations. The IC50, defined as the concentration of competing test compound needed to reduce specific binding of the probe by 50%, was calculated using the 4 parameter logistic equation to fit the data

[4] = target: T2, STING WT: His-TVMV-S-hSTING(155-341)-H232R (Homo sapiens, UniProt Q86WV6, H232R); test: STING HTRF binding assay (time resolved FRET competition), STING WT; conditions: 20 nM His-tagged STING WT cytoplasmic domain, 200 nM fluorescein-labeled cGAMP analog probe, one hour; read-out: HTRF Binding Assays IC50 (μM) WT
T2 construct: STING WT: His-TVMV-S-hSTING(155-341)-H232R
T2 sequence (Q86WV6 with tags, fused parts or gaps H232R): as the sequence (Q86WV6 with tags, fused parts or gaps G230A/H232R/R293Q) above, with A99G, Q162R counted along it
Procedure: as §5

## Nc1ncnc2c1ncn2[C@@H]1C[C@@H]2COP(=O)(S)O[C@@H]3[C@H](F)[C@@H](COP(=O)(S)OC[C@H]21)O[C@H]3n1cnc2c1ncn1ccnc21 (single isomer, unassigned) [Example 8-3]
[1]; 20 hours
  EC50: > 100 µM
[2]; 20 hours
  EC50: > 100 µM
[3]
  IC50: 0.3 µM
[4]
  IC50: 0.89 µM

## Nc1ncnc2c1ncn2[C@@H]1C[C@@H]2COP(=O)(S)O[C@@H]3[C@H](F)[C@@H](COP(=O)(S)OC[C@H]21)O[C@H]3n1cnc2c1ncn1ccnc21 (single isomer, unassigned) [Example 8-4]
[1]; 20 hours
  EC50: 26.1 µM
[2]; 20 hours
  EC50: 32.4 µM
[3]
  IC50: 0.08 µM
[4]
  IC50: 0.35 µM

## NC(=O)c1cc([C@@H]2C[C@@H]3COP(=O)(S)O[C@H]4[C@@H](F)[C@H](n5cnc6c(N)ncnc65)O[C@@H]4COP(=O)(S)OC[C@H]32)ccn1 (single isomer, unassigned) [Example 9]
[1]; 20 hours
  EC50: 18.4 µM
[2]; 20 hours
  EC50: 23.5 µM
[3]
  IC50: 0.02 µM
[4]
  IC50: 1.41 µM

## NC(=O)c1cc([C@@H]2C[C@@H]3COP(=O)(S)O[C@H]4[C@@H](F)[C@H](n5cnc6c(N)ncnc65)O[C@@H]4COP(=O)(S)OC[C@H]32)ccn1 (single isomer, unassigned) [Example 10]
[1]; 20 hours
  EC50: > 100 µM
[2]; 20 hours
  EC50: > 100 µM
[3]
  IC50: 2.3 µM
[4]
  IC50: 40.9 µM

## NC(=O)c1cc([C@@H]2C[C@@H]3COP(=O)(S)O[C@H]4[C@H](F)[C@H](n5cnc6c(N)ncnc65)O[C@@H]4COP(=O)(S)OC[C@H]32)ccn1 (single isomer, unassigned) [Example 11]
[1]; Homo sapiens, THP1-Dual, 20 h
  EC50: > 100 µM
[2]; Homo sapiens, THP1-Dual, 20 h
  EC50: > 100 µM
[3]
  IC50: 10.1 µM
[4]
  IC50: 52.5 µM

## NC(=O)c1cc([C@@H]2C[C@@H]3COP(=O)(S)O[C@H]4[C@@H](F)[C@H](n5cnc6c(N)ncnc65)O[C@@H]4COP(=O)(O)OC[C@H]32)ccn1 (single isomer, unassigned) [Example 13]
[1]; Homo sapiens, THP1-Dual, 20 h
  EC50: 54.6 µM
[2]; Homo sapiens, THP1-Dual, 20 h
  EC50: 90 µM
[3]
  IC50: 0.1 µM
[4]
  IC50: 4.78 µM

## NC(=O)c1cc([C@@H]2C[C@@H]3COP(O)(=S)O[C@H]4[C@@H](F)[C@H](n5cnc6c(N)ncnc65)O[C@@H]4COP(=O)(O)OCC32)ccn1 (single isomer, unassigned) [Example 14]
[1]; Homo sapiens, THP1-Dual, 20 h
  EC50: > 100 µM
[2]; Homo sapiens, THP1-Dual, 20 h
  EC50: > 100 µM
[3]
  IC50: 7.78 µM
[4]
  IC50: > 100 µM

## NC(=O)c1cc([C@@H]2C[C@@H]3COP(=O)(S)OC[C@@H]4[C@@H](COP(=O)(S)OC[C@H]32)C[C@H]4n2cnc3c(N)ncnc32)ccn1 (single isomer, unassigned) [Example 15-1]
[1]; Homo sapiens, THP1-Dual, 20 h
  EC50: > 100 µM
[2]; Homo sapiens, THP1-Dual, 20 h
  EC50: > 100 µM
[3]
  IC50: > 100 µM
[4]
  IC50: > 100 µM

## Nc1ncnc2c1ncn2[C@@H]1C[C@@H]2COP(=O)(S)O[C@H]3[C@@H](F)[C@H](n4cnc5c4ncn4ccnc54)O[C@@H]3COP(=O)(S)OC[C@H]21 (single isomer, unassigned) [Example 17-1]
[1]; Homo sapiens, THP1-Dual, 20 h
  EC50: > 100 µM
[2]; Homo sapiens, THP1-Dual, 20 h
  EC50: > 100 µM
[3]
  IC50: 3.55 µM
[4]
  IC50: > 100 µM

## Nc1ncnc2c1ncn2[C@@H]1C[C@@H]2COP(=O)(S)O[C@H]3[C@@H](F)[C@H](n4cnc5c4ncn4ccnc54)O[C@@H]3COP(=O)(S)OC[C@H]21 (single isomer, unassigned) [Example 17-2]
[1]; 20 hours
  EC50: > 100 µM
[2]; 20 hours
  EC50: > 100 µM
[3]
  IC50: 0.46 µM
[4]
  IC50: 39 µM

## Nc1ncnc2c1ncn2[C@@H]1C[C@@H]2COP(=O)(S)O[C@H]3[C@@H](F)[C@H](n4cnc5c4ncn4ccnc54)O[C@@H]3COP(=O)(S)OC[C@H]21 (single isomer, unassigned) [Example 17-3]
[1]; 20 hours
  EC50: 73.7 µM
[2]; 20 hours
  EC50: 89.6 µM
[3]
  IC50: 0.11 µM
[4]
  IC50: 5.22 µM

## O=P1(S)OC[C@@H]2[C@@H](COP(=O)(S)O[C@H]3[C@@H](F)[C@H](n4cnc5c4ncn4ccnc54)O[C@@H]3CO1)C[C@H]2n1cnc2c(Cl)ncnc21 (single isomer, unassigned) [Example 18-1]
[1]; Homo sapiens, THP1-Dual, 20 h
  EC50: > 100 µM
[2]; Homo sapiens, THP1-Dual, 20 h
  EC50: > 100 µM
[3]
  IC50: 26.4 µM
[4]
  IC50: > 100 µM

## O=P1(S)OC[C@@H]2[C@@H](COP(=O)(S)O[C@H]3[C@@H](F)[C@H](n4cnc5c4ncn4ccnc54)O[C@@H]3CO1)C[C@H]2n1cnc2c(Cl)ncnc21 (single isomer, unassigned) [Example 18-2]
[1]; 20 hours
  EC50: > 100 µM
[2]; 20 hours
  EC50: > 100 µM
[3]
  IC50: 35.7 µM
[4]
  IC50: > 100 µM

## O=P1(S)OC[C@@H]2[C@@H](COP(=O)(S)O[C@H]3[C@@H](F)[C@H](n4cnc5c4ncn4ccnc54)O[C@@H]3CO1)C[C@H]2n1cnc2c(Cl)ncnc21 (single isomer, unassigned) [Example 18-3]
[1]; 20 hours
  EC50: > 100 µM
[2]; 20 hours
  EC50: > 100 µM
[3]
  IC50: 2.81 µM
[4]
  IC50: > 100 µM

## O=P1(S)OC[C@@H]2[C@@H](COP(=O)(S)O[C@H]3[C@@H](F)[C@H](n4cnc5c4ncn4ccnc54)O[C@@H]3CO1)C[C@H]2n1cnc2c(Cl)ncnc21 (single isomer, unassigned) [Example 18-4]
[1]; 20 hours
  EC50: > 100 µM
[2]; 20 hours
  EC50: > 100 µM
[3]
  IC50: 2.18 µM
[4]
  IC50: 24.5 µM

## NC(=O)c1cc([C@@H]2O[C@@H]3COP(=O)(S)OC[C@@H]4[C@@H](COP(=O)(S)O[C@@H]2[C@@H]3O)C[C@H]4n2cnc3c(N)ncnc32)ccn1 (single isomer, unassigned) [Example 20-1]
[1]; 20 hours
  EC50: > 100 µM
[2]; 20 hours
  EC50: > 100 µM
[3]
  IC50: > 100 µM
[4]
  IC50: > 100 µM

## NC(=O)c1cc([C@@H]2O[C@@H]3COP(=O)(S)OC[C@@H]4[C@@H](COP(=O)(S)O[C@@H]2[C@@H]3O)C[C@H]4n2cnc3c(N)ncnc32)ccn1 (single isomer, unassigned) [Example 20-2]
[1]; 20 hours
  EC50: > 100 µM
[2]; 20 hours
  EC50: > 100 µM
[3]
  IC50: > 100 µM
[4]
  IC50: > 100 µM

## NC(=O)c1cc([C@@H]2O[C@@H]3COP(=O)(S)OC[C@@H]4[C@@H](COP(=O)(S)O[C@@H]2[C@@H]3O)C[C@H]4n2cnc3c(N)ncnc32)ccn1 (single isomer, unassigned) [Example 20-3]
[1]; 20 hours
  EC50: 5.23 µM
[2]; 20 hours
  EC50: 7.64 µM
[3]
  IC50: 0.01 µM
[4]
  IC50: 0.01 µM

## NC(=O)c1cc([C@@H]2O[C@@H]3COP(=O)(S)OC[C@@H]4[C@@H](COP(=O)(S)O[C@@H]2[C@@H]3O)C[C@H]4n2cnc3c(N)ncnc32)ccn1 (single isomer, unassigned) [Example 20-4]
[1]; 20 hours
  EC50: > 100 µM
[2]; 20 hours
  EC50: > 100 µM
[3]
  IC50: 35.7 µM
[4]
  IC50: > 100 µM

## Nc1ncnc2c1ncn2[C@@H]1O[C@@H]2COP(=O)(S)OC[C@@H]3[C@@H](COP(=O)(S)O[C@H]2[C@H]1F)C[C@H]3n1cnc2c(=O)n3cnnc3[nH]c21 (single isomer, unassigned) [Example 21-1]
[1]; 20 hours
  EC50: 5.36 µM
[2]; 20 hours
  EC50: 25 µM
[3]
  IC50: 0.004 µM
[4]
  IC50: 0.15 µM
